Entries after “also recorded” stand apart in the source; their conditions may differ.
Tests used:
[1] = tested on: STAM model of non-alcoholic steatohepatitis; experiment: STAM model of NASH: Sirius red staining, fibrosis area; type: in vivo, mice; settings: for Sirius red-positive area (fibrosis area, mean ± SD): n = 8
Experimental: NASH was induced in 48 male mice by a single subcutaneous injection of 200 μg streptozotocin (STZ, Sigma-Aldrich, USA) solution 2 days after birth and feeding with high fat diet (HFD, 57 kcal % fat, Cat #HFD32, CLEA Japan, Inc., Japan) after 4 weeks of age. Compound A was administered at 3 dose levels of 10, 20 and 40 mg/kg once daily from 6 to 9 weeks of age. Compound B was administered at a dose of 40 mg/kg once daily from 6 to 9 weeks of age. Telmisartan was administered at a dose of 10 mg/kg once daily from 6 to 9 weeks of age. For HE staining, sections were cut from paraffin blocks of liver tissue prefixed in Bouin's solution and stained with Lillie-Mayer's Hematoxylin (Muto Pure Chemicals Co., Ltd., Japan) and eosin solution (FUJIFILM Wako Pure Chemical Corporation). NAFLD Activity score (NAS) was calculated according to the criteria of Kleiner (Kleiner D E. et al., Hepatology, 2005; 41:1313). To visualize collagen deposition, Bouin's fixed liver sections were stained using picro-Sirius red solution (Waldeck, Germany). For quantitative analysis of fibrosis area, bright field images of Sirius red-stained sections were captured around the central vein using a digital camera (DFC295; Leica, Germany) at 200-fold magnification, and the positive areas in 5 fields/section were measured using ImageJ software (National Institute of Health, USA).

[2] = tested on: STAM model of non-alcoholic steatohepatitis; experiment: STAM model of NASH: F4/80 immunostaining; type: in vivo, mice; settings: for F4/80-positive area (mean ± SD): n = 8
Experimental: NASH was induced in 48 male mice by a single subcutaneous injection of 200 μg streptozotocin (STZ, Sigma-Aldrich, USA) solution 2 days after birth and feeding with high fat diet (HFD, 57 kcal % fat, Cat #HFD32, CLEA Japan, Inc., Japan) after 4 weeks of age.
Compound A was administered at 3 dose levels of 10, 20 and 40 mg/kg once daily from 6 to 9 weeks of age. Compound B was administered at a dose of 40 mg/kg once daily from 6 to 9 weeks of age. Telmisartan was administered at a dose of 10 mg/kg once daily from 6 to 9 weeks of age.

Sugen hypoxia model = experiment: Rat Sugen hypoxia model of pulmonary arterial hypertension: mean pulmonary pressure; type: in vivo; settings: for Mean Pulmonary Pressure: SuHx; for Effect on mean pulmonary arterial pressure: rat Sugen hypoxia model, 70 mg/kg
Experimental: Animals from Groups 2 to 5 (see Table 10) receive a single subcutaneous injection of sugen (20 mg/kg in 2 mL/kg volume) solution (10 mg/mL) on Day 0 and returned to their cages. Animals from Group 1 receive one subcutaneous injection of DMSO at 2 mL/kg (vehicle for sugen) on Day 0 and returned to their respective cages.
Groups 2-5 are placed in cages for which the controlled air is adjusted to receive a FiO2 equivalent to 0.10 (10%) using a mixture of nitrogen and ambient air controlled by the ventilated cage system. They are kept under these hypoxic conditions for 21 days. While in hypoxia, cages are cleaned and changed once a week, exposing the animals to ambient oxygen levels for less than 10 minutes. They are exposed to ambient oxygen levels from Day 22 to Day 56. Group 1 animals remain in cages exposed to ambient oxygen (normoxic) levels for 56 days. The animals are observed on a daily basis for any changes in their behaviour and general health status.
Treatment with the compound A, sildenafil or vehicle is administered as of Day 22 (Groups 2-5) as scheduled and described in Table 10. The Groups 2-4 receives a single dose per day. The reference group 5 receives sildenafil twice a day. Food and water are given ad libitum. Daily observation of the behaviour and general health status of the animals is done. Weekly body weight is taken.
Surgical Instrumentation and Measurement of Hemodynamic and Functional Parameters in Efficacy Study Animals • 1. On the selected day of surgery, rats are anaesthetized with a mixture of 2 to 2.5% isoflurane USP (Abbot Laboratories, Montreal, Canada) in oxygen, and placed on a heating pad to maintain body temperature. • 2. Rats are tracheotomized and immediately ventilated by means of a positive-pressure rodent respirator set at ≈10 ml/kg body weight at a frequency of 65-70 strokes/min. • 3. Lead II ECG contact electrodes is placed on the rat to continuously monitor the ECG during the surgical procedure. • 4. A cannula connected to a pressure transducer is inserted into the left femoral artery to measure the arterial blood pressure. • 5. A cannula connected to a pressure transducer is inserted into the right atria through the right jugular vein to measure the right atria pressure. • 6. The heart is exposed through a sternotomy and a 20GA 1.16 in Insyte is introduced into the right ventricle and rapidly hooked up to a saline filled PE-50 catheter connected to a transducer. • 7. Following a few seconds of right ventricular pressure recording, the Insyte is further advanced into the pulmonary artery to allow PAP recording for an additional 60 seconds. • 8. Hemodynamic parameters are recorded continuously for the duration of the procedure or until loss of PAP signal. • 9. Following hemodynamic monitoring, chest cavity is further opened to expose the lung. The muscle over the trachea is dissected away to remove the lungs and heart. Harvested tissue is rinsed with PBS to remove any excess of blood before to be weighed. • 10. For the histology and casting of the lungs, the process is as follows; 1) eight (8) rats per group is reserved to assess the histology of the left lung and is therefore be treated as described in point 12 of this section 8.2; 2) Two (2) rats per group serve to enable quantitative characterization of the three-dimensional vascular structure of the left lung and therefore is treated as described in section 8.3 for casting of the left lung. • 11. For histology, the left lobe is inflated using a 10 mL syringe filled with fixative (10% NBF) with attached blunt tip needle (23 g). Needle tip is inserted into the trachea, held in place with tied suture while another syringe is tied to the pulmonary artery. The lung is inflated gently at physiological pressure (20-25 mmHg) until all lobes are fully, uniformly, and consistently expanded (not allowing fixative to ooze through lung surface). This provides optimal vascular and airway expansion without causing excessive tissue disruption. […]

[3] = 10 mg/kg PO QD, 6-9 wks of age (Compound A low, Telmisartan groups)
[4] = 20 mg/kg PO QD (Compound A middle group)
[5] = 20 mg/kg PO QD, 6-9 wks of age (Compound A middle group)
[6] = 40 mg/kg PO QD, 6-9 wks of age (Compound A high, Compound B groups)
[7] = summary statement, dose not stated

SMILES: FC(F)(F)Oc1ccc(Nc2ccc3cccc(Cl)c3n2)cc1 [Compound A, 8-Chloro-N-(4-(trifluoromethoxy)phenyl)quinolin-2-amine]
- Sirius red-positive area (fibrosis area, mean ± SD) [1, 3]: 0.70 ± 0.11%
- Fibrosis area (Sirius red-positive area) compared with the Vehicle group [1, 4]: tended to decrease; also recorded: decreasing trends
- Sirius red-positive area (fibrosis area, mean ± SD) [1, 5]: 0.65 ± 0.13%
- Sirius red-positive area (fibrosis area, mean ± SD) [1, 6]: 0.68 ± 0.14%
- Pathological deposition of collagen in the liver (Sirius red staining) [1, 7]: decreasing trend
- F4/80-positive area (mean ± SD) [2, 3]: 2.22 ± 0.46%
- F4/80-positive area compared with the Vehicle group [2, 4]: tended to decrease
- F4/80-positive area (mean ± SD) [2, 5]: 1.88 ± 0.62%
- F4/80-positive area compared with the Vehicle group ([2]; 40 mg/kg PO QD (Compound A high, Compound B groups)): significant decrease
- F4/80-positive area (mean ± SD) [2, 6]: 1.53 ± 0.77%
- Mean Pulmonary Pressure (Sugen hypoxia model; female rats, 70 mg/kg QD gavage Day 22 to Day 56): 24.1 mmHg
- Mean Pulmonary Pressure (Sugen hypoxia model; female rats, 120 mg/kg QD gavage Day 22 to Day 56): 34.4 mmHg
- Mean Pulmonary Pressure (Sugen hypoxia model; male rats, 70 mg/kg QD gavage Day 22 to Day 56): 26.8 mmHg
- Mean Pulmonary Pressure (Sugen hypoxia model; male rats, 120 mg/kg QD gavage Day 22 to Day 56): 33.6 mmHg
- Effect on mean pulmonary arterial pressure (Sugen hypoxia model): tendency to decrease

SMILES: FC(F)(F)Oc1ccc(Nc2ccc3cccc(Cl)c3n2)cc1 [8-Chloro-N-(4-(trifluoromethoxy)phenyl)quinolin-2-amine]
- F4/80-positive area in the liver [2, 7]: decreased
- Effect on mean pulmonary arterial pressure (Sugen hypoxia model): tendency to decrease

From US11992499B2, “Quinoline derivatives for use in the treatment of inflammation diseases” (ABIVAX, priority 2018, dated 2024)
